Laboratory results reported in patent publication US5112947A, “Peptides, and antidementia agents containing the same” (Nippon Chemiphar Co., Ltd., priority 1989, dated 1992).
Non-standard residues stand in square brackets, D forms with d. Residues, ends and D or L forms follow the SMILES beside them. *: point of attachment. Cys(free,S-linked) = N[C@@H](CS*)C(=O)O; pGlu = O=C1CC[C@@H](C(=O)O)N1; Aze = O=C(O)[C@@H]1CCN1

test system: male Wistar rats; assay: one-trial passive avoidance test: improvement of experimental retrograde amnesia by cycloheximide; type: in vivo, rat; details: dose 0.1 ng/kg, given 1 h before electro-shock (0.5 mA); cycloheximide 2.7 to 3.0 mg/kg s.c.; retention tested at 48 hours; control = cycloheximide alone
Method: 221, pp. […], 1983. […] At 48 hours after the administration was made, memory retention of the rats were tested.

In order of rising “Effect (%): ratio of response latent period of each group to that of the control groups” value:
1. N=C(N)NCCC[C@H](NC(=O)[C@@H]1CCCN1C(=O)[C@H](CO)NC(=O)[C@@H]1CCCN1)C(=O)O [Example 27, H-Pro-Ser-Pro-Arg-OH acetate] (H-PSPR-OH)  213%
2. N=C(N)NCCC[C@H](NC(=O)[C@@H]1CCCN1C(=O)[C@H](CO)NC(=O)[C@H](CC(N)=O)NC(=O)[C@@H]1CCC(=O)N1)C(=O)NCC(N)=O [Example 21, pGlu-Asn-Ser-Pro-Arg-Gly-NH2 acetate] (HELM PEPTIDE1{[Glp].N.S.P.R.G.[am]}$$$$V2.0)  353%

same assay, conditions: dose 1 ng/kg, given 1 h before electro-shock (0.5 mA); cycloheximide 2.7 to 3.0 mg/kg s.c.; retention tested at 48 hours; control = cycloheximide alone

In order of rising “Effect (%): ratio of response latent period of each group to that of the control groups” value:
1. N=C(N)NCCC[C@H](NC(=O)[C@@H]1CCCCN1C(=O)[C@H](CO)NC(=O)[C@@H](N)CC(N)=O)C(=O)O [Example 12, H-Asn Ser-Pip-Arg-OH acetate] (HELM PEPTIDE1{N.S.[O=C([C@@H]1CCCCN1[*:1])[*:2]].R}$$$$V2.0)  235%
2. N=C(N)NCCC[C@H](NC(=O)[C@@H]1CCN1C(=O)[C@H](CSSC[C@H](N)C(=O)O)NC(=O)[C@H](CC(N)=O)NC(=O)[C@@H]1CCC(=O)N1)C(=O)NCC(N)=O [Example 6] ([pGlu]NC(Cys(free,S-linked))[Aze]RG-NH2)  239%
3. N=C(N)NCCC[C@H](NC(=O)[C@@H]1CCCN1C(=O)[C@H](CSSC[C@H](N)C(=O)O)NC(=O)[C@@H]1CCCN1)C(=O)NCC(N)=O [Example 17] (H-PC(Cys(free,S-linked))PRG-NH2)  365%
4. C[C@H](NC(=O)[C@@H](N)CC(N)=O)C(=O)N1CCC[C@H]1C(=O)N[C@@H](CCCNC(=N)N)C(=O)O [Example 9, H-Asn-Ala-Pro-Arg-OH acetate] (H-NAPR-OH)  460%
